# Measurements taken from ChEMBL document CHEMBL1132070, “Piperidinyl-3-phosphinic acids as novel uptake inhibitors of the neurotransmitter gamma-aminobutyric acid (GABA)” (Bioorg Med Chem Lett, 1999).
# Organism: Rattus norvegicus
# Experiment: Inhibition of [3H]GABA (gamma amino butyric acid) uptake in vitro in rat brain synaptosomes
# Assay type: functional
row,Structure (SMILES),IC50 [µM]
1,O=[PH](O)C1CCCNC1 (stereo not given),24
2,CP(=O)(O)C1CCCNC1 (stereo not given),> 1000
3,O=C(O)C1CCCNC1 (stereo not given) [NIPECOTIC ACID],4

# The next lines start with the values.
row,IC50 [µM],Structure (SMILES)
1,53,O=[PH](O)C1CCCN(CCC=C(c2ccccc2)c2ccccc2)C1 (stereo not given)
2,0.1,O=C(O)C1CCCN(CCC=C(c2ccccc2)c2ccccc2)C1 (stereo not given)
